Key:
Type in all cases: in vivo, Balb/C mice
irradiated mice = assay: Survival of irradiated mice (Example 39); conditions: for mice surviving 30 days after irradiation over number irradiated: 50 mg/kg i.p., 6 days after irradiation
Description: Thirty female Balb/C mice weighing 20 grams each were irradiated with Cobalt 60 gamma radiation at a dose rate of 7.3 Rads per minute. The total dose was either 700, 725, or 750 Rads. Twenty-four hours later and each day thereafter for a total of 6 days, these mice received an i.p. injection of either physiological saline (controls) or 50 mg/kg of palmitoylguanosine. The number of animals surviving in each group was observed over a 30 day period.

bone marrow cells = assay: Colony forming units in bone marrow of mice recovering from cyclophosphamide (Example 40); conditions: 2.5 μmoles/mouse/day i.p.
Description: Seventy-two Balb/C female mice weighing approximately 20 grams each were given cyclophosphamide (275 mg/kg) by intraperitoneal (i.p.) injection. Twenty-four hours later and each day thereafter, mice received a 0.4 ml i.p. injection of either physiological saline (control) or palmitoylguanosine (2.5 μmoles/mouse/day in 0.2% Tween 80). On days 3, 5, 7, and 10 following CP administration 6 animals from each group were sacrificed by cervical dislocation, and the left femur of each animal obtained by sterile means. The bone marrow cells were then flushed from the femurs with McCoy's 5a Modified medium using a 23-gauge needle. Cells from femurs in the same group were pooled, dispersed by briefly vortexing, and counted using a hemocytometer. Cell suspensions were added to McCoy's Modified 5a medium containing 15% bovine calf serum, 1x Kanamycin, 0.3% agar, and 3% endotoxin-stimulated serum. […] Each group was plated in quintuplicate. After 7 days in culture (at 37° in 5% CO2 and humidified air) aggregates of 50 cells or more ("colonies") were counted using a dissecting microscope at 25x.

[1] = tested on: hematopoietic recovery after cyclophosphamide; assay: Comparative dose-response, hematopoietic recovery after cyclophosphamide (Example 53)
Description: Cyclophosphamide (CP) (275 mg/kg, i.p.) was administered to 96 Balb/C female mice weighing approximately 20 grams each. Twenty-four hours later and each day thereafter mice were given a 0.4 ml i.p. injection of either physiological saline (controls), palmitoylguanosine at one of four different doses: 0.2, 0.4, 1.0 or 2.0 μmoles/mouse), or palmitoyldeoxyguanosine at a dose of 1.0 μmoles/mouse. On days 5 and 7 following CP administration 8 animals from each of the 6 groups were bled and then sacrificed by cervical dislocation. Spleens were removed and weighed, and complete blood cell counts performed.

[2] = day 5, palmitoylguanosine 2.0, palmitoyldeoxyguanosine 1.0 μmoles/mouse
[3] = day 7, palmitoylguanosine 1.0 and 2.0, palmitoyldeoxyguanosine 1.0 μmoles/mouse

For `CCCCCCCCCCCCCCCC(=O)OC[C@H]1O[C@@H](n2cnc3c(=O)[nH]c(N)nc32)[C@H](O)[C@@H]1O`, the mice surviving (irradiated mice; 2 higher radiation doses, 30 days) was “all of the mice treated with palmitoylguanosine survived”, the “mice surviving 30 days after irradiation over number irradiated” value (irradiated mice; 725 R) was 5/5 and the “mice surviving 30 days after irradiation over number irradiated” value (irradiated mice; 750 R) was 5/5. For the same compound, the survival (irradiated mice; pretreatment prior to irradiation) was “improved survival”, the colony-forming units (bone marrow cells; day 3) was 645 ± 26 colonyforming units per femur and the colony-forming units (bone marrow cells; day 5) was 2327 ± 121 colonyforming units per femur. The colony-forming units (bone marrow cells; day 7) was 1328 ± 140 colonyforming units per femur, the colony-forming units (bone marrow cells; day 10) was 647 ± 25 colonyforming units per femur and the total neutrophil counts ([1]; day 5, palmitoylguanosine 1.0 μmoles/mouse) was “significantly increased”. For the same compound, the spleen weight [1, 2] was “significantly elevated”, the total neutrophil counts [1, 2] was “significantly elevated” and the “white blood cell counts” value [1, 2] was “significantly elevated”. For the same compound, the spleen weight [1, 3] was “significantly elevated”, the total neutrophil counts [1, 3] was “significantly elevated” and the “white blood cell counts” value [1, 3] was “significantly elevated”.
